From US20050009903A1, “CB2-selective cannabinoid analogues” (priority 2003, published 2005) come the findings set out here.

One assay addresses T1, CB1 receptor (Rattus norvegicus, UniProt P20272).
T1 construct: from tissue; host or cells: rat whole brain, P2 membranes
The experiment in a line: CB1 assay: displacement of [3H]CP-55,940 from rat brain membrane preparation. The format is binding. (In general: Displacement assays read how much labelled ligand stays bound in the presence of the test substance.)

The next assay has as its target CB2 receptor (Homo sapiens, UniProt P34972). Briefly: CB2 assay: displacement of [3H]CP-55,940 from cloned human CB2 receptor preparation (transfected HEK 293 cells). The assay is classed as binding. The arrangement: expressed in transfected cells. The settings on record: for Ratio CB17CB2 / Ratio CB1/CB2: ratio of Ki values.
Setting [1] is: Ki at CB2 receptor, cloned human CB2.
[2] abbreviates: rat brain membranes, read-out: Ki at CB1 receptor.
The mark [3] stands for this setting: cloned human CB2, read-out: Ki at CB2 receptor.
Where [4] appears, read: Table 3, mean ± SEM, 3-(alkoxy-1-naphthoyl)indoles, the same values as Ki in nM, read-out: CB1 (receptor affinity).
Where [5] appears, read: Ki CB2, Table 1, mean ± SEM, cloned human CB2, [3H]CP 55,940.
[6] abbreviates: Table 2, mean ± SEM, 3-(alkyl-1-naphthoyl)indoles, read-out: Ki CB1.
Where [7] appears, read: Table 1, mean ± SEM, rat brain membranes, [3H]CP 55,940, read-out: Ki CB1.
Where [8] appears, read: Table 1, mean ± SEM, cloned human CB2, [3H]CP 55,940, read-out: Ki CB2.
[9] abbreviates: Table 2, mean ± SEM, 3-(alkyl-1-naphthoyl)indoles, read-out: Ki CB2.

“And” between values parts separate entries of the source, which are not always exact repeats. Equal entries are not always repeated. Where two headings read alike, the source gives them in different places. Where only a bound is given, the exact number is not on record here.

Sequence of CB2 receptor (P34972 whole entry): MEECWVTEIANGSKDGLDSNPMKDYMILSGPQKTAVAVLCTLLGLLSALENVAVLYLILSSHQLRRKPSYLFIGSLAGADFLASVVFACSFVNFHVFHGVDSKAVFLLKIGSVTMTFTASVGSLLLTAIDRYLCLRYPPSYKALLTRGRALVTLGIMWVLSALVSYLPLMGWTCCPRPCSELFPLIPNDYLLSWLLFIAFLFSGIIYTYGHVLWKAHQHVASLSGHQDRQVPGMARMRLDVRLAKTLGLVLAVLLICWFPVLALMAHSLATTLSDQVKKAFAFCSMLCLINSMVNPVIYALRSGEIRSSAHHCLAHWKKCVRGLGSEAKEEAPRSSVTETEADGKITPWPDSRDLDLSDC
T1 sequence (P20272 whole entry): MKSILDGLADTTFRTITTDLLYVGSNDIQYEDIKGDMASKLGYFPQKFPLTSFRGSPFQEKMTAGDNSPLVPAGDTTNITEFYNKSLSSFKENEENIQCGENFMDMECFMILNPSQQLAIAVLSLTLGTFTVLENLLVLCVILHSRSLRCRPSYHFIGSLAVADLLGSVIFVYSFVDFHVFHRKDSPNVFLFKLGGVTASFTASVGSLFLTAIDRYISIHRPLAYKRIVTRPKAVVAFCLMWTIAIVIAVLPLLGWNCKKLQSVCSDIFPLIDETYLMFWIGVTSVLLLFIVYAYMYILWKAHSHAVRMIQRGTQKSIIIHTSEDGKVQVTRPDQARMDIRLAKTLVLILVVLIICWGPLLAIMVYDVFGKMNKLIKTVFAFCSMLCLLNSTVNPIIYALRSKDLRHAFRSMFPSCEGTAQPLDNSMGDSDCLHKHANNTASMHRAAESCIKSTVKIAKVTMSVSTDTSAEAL

Turning to `CCCn1c(C)c(C(=O)c2c(OC)ccc3ccccc23)c2ccccc21` [JWH-266, 2-Methyl-1-propyl-3-(2-methoxy-1-naphthoyl)indole], the Ki on CB1 receptor is over 10000 nM; at CB1 receptor (read-out: CB1 (receptor affinity), Table 3, mean ± SEM, 3-(alkoxy-1-naphthoyl)indoles, the same values as Ki in nM) it was over 10000 nM; at CB2 receptor (setting [1]), 455 ± 55 nM.
`CCCCc1ccc(C(=O)c2cn(CCC)c3ccccc23)c2ccccc12` [JWH-239, 1-Propyl-3-(4-butyl-1-naphthoyl)indole]: the Ki at CB1 receptor (setting [2]) was found to be 342 ± 20 nM; at CB2 receptor (setting [3]) it was 52 ± 6 nM. In addition, the “Ratio CB17CB2” value on CB2 receptor (Table 2) came to 6.6.
The matching figures for `CCCn1cc(C(=O)c2cccc3ccc(C)cc23)c2ccccc21` [JWH-076, 1-Propyl-3-(7-methyl-1-naphthoyl)indole]: 214 ± 11 nM, 106 ± 46 nM and 2.0.
In the case of `CCCCCn1c(C)c(C(=O)c2c(OC)ccc3ccccc23)c2ccccc21` [JWH-268, 2-Methyl-1-pentyl-3-(2-methoxy-1-naphthoyl)indole], the Ki is 1380 ± 193 nM at CB1 receptor (setting [4]) and 40 ± 1 nM at CB2 receptor (setting [3]).
Regarding `CCCCCCC(C)(C)c1cc(OC)c2c(c1)OC(C)(C)[C@@H]1CC=C(CO)C[C@@H]21` [Compound 11f, 11-hydroxy-3-(1′,1′-dimethylheptyl)-1-methoxy-Δ^8-THC], the Ki is 14 ± 3 nM on CB1 receptor; 1 nM and 1.2 nM at CB2 receptor (setting [1]). Moreover, the “Ratio CB1/CB2” value at CB2 receptor (Table 1) is given as 14.
For `CCCCC(C)(C)c1cc(OC)c2c(c1)OC(C)(C)[C@@H]1CC=C(CO)C[C@@H]21` [Compound 11d, 1-Methoxy-3-(1′,1′-dimethylpentyl)-11-hydroxy-Δ^8-THC], the Ki was 40 ± 6 nM at CB1 receptor, 4.4 ± 0.3 nM at CB2 receptor (setting [5]) and 40 ± 6 nM at CB2 receptor (setting [1]). In addition, the “Ratio CB1/CB2” value on CB2 receptor (Table 1) is 9.1.
On to `CCCCCn1c(C)c(C(=O)c2ccc(CCC)c3ccccc23)c2ccccc21` [JWH-181, 2-Methyl-1-pentyl-3-(4-propyl-1-naphthoyl)indole], for which the values for the Ki on CB1 receptor (setting [6]) and on CB2 receptor (setting [3]) were 1.3 ± 0.1 nM and 0.62 ± 0.04 nM, respectively. Also, at CB2 receptor (Table 2), the “Ratio CB17CB2” value came to 2.1.
With `CCCCCn1c(C)c(C(=O)c2cccc3cc(OC)ccc23)c2ccccc21` [JWH-153, 2-Methyl-1-pentyl-3-(6-methoxy-1-naphthoyl)indole], the Ki on CB1 receptor turned out to be 240 ± 24 nM; on CB1 receptor (setting [4]), 250 ± 24 nM; at CB2 receptor (setting [3]) it was 11 ± 1 nM.
For `CCCCC(C)(C)c1ccc2c(c1)OC(C)(C)C1CC=C(CO)CC21` (stereo not shown) [Compound 9d, 1-Deoxy-3-(1′,1′-dimethylpentyl)-11-hydroxy-Δ^8-THC], the Ki at CB1 receptor (setting [7]) stood at 8.8 ± 1.4 nM; at CB2 receptor (setting [8]), 1.6 ± 0.03 nM. At CB2 receptor (Table 1), the “Ratio CB1/CB2” value was found to be 5.5.
As to `CCCCCn1cc(C(=O)c2cccc3ccc(OC)cc23)c2ccccc21` [JWH-164, 1-Pentyl-3-(7-methoxy-1-naphthoyl)indole], the Ki at CB1 receptor (setting [2]) is 6.6 ± 0.7 nM; at CB2 receptor (setting [3]), 6.9 ± 0.2 nM.
For the compound `CCCCCn1cc(C(=O)c2ccc(CCCC)c3ccccc23)c2ccccc21` [JWH-240, 1-Pentyl-3-(4-butyl-1-naphthoyl)indole], the Ki at CB1 receptor (setting [2]) amounted to 14 ± 1 nM; on CB2 receptor (setting [3]) it was 7.2 ± 13 nM. Also, on CB2 receptor (Table 2), the “Ratio CB17CB2” value came to 1.9.
As to `CCCCCn1cc(C(=O)c2cccc3cc(OC)ccc23)c2ccccc21` [JWH-166, 1-Pentyl-3-(6-methoxy-1-naphthoyl)indole], the results for the Ki at CB1 receptor (setting [2]) and on CB2 receptor (setting [3]) were 44 ± 10 nM and 1.9 ± 0.1 nM, respectively.
The matching figures for `CCCn1cc(C(=O)c2cccc3ccc(OC)cc23)c2ccccc21` [JWH-165, 1-Propyl-3-(7-methoxy-1-naphthoyl)indole]: 204 ± 26 nM and 71 ± 8 nM.
With `CCC(C)(C)c1cc(OC)c2c(c1)OC(C)(C)C1CC=C(CO)CC21` (stereo not shown) [Compound 11b, 1-Methoxy-3-(1′,1′-dimethylpropyl)-11-hydroxy-Δ^8-THC], the Ki turned out to be 1010 ± 117 nM on CB1 receptor (setting [7]) and 85 ± 21 nM at CB2 receptor (setting [8]). Moreover, the “Ratio CB1/CB2” value at CB2 receptor (Table 1) was found to be 12.
As to `CCCn1cc(C(=O)c2cccc3ccccc23)c2ccccc21` [JWH-072], the “Ratio CB17CB2” value on CB2 receptor (Table 2) turned out to be 6.2.
As for `CCCCCn1c(C)c(C(=O)c2ccc(OCC)c3ccccc23)c2ccccc21` [JWH-260, 2-Methyl-1-pentyl-3-(4-ethoxy-1-naphthoyl)indole], the Ki turned out to be 29 ± 0.4 nM at CB1 receptor (setting [2]) and 25 ± 1.9 nM at CB2 receptor (setting [3]).
With `CCCCCn1c(C)c(C(=O)c2cccc3ccc(C)cc23)c2ccccc21` [JWH-048, 2-Methyl-1-pentyl-3-(7-methyl-1-naphthoyl) indole], the “Ratio CB17CB2” value at CB2 receptor (Table 2) is reported as 22.
`COc1cc(C(C)(C)C)cc2c1C1CC(C)=CCC1C(C)(C)O2` (stereo not shown) [Compound 6a, 1-Methoxy-3-(1′,1′-dimethylethyl)-Δ^8-THC]: the values for the Ki on CB1 receptor (setting [7]) and at CB2 receptor (setting [3]) were over 10000 nM and 1870 ± 867 nM, respectively. The “Ratio CB1/CB2” value on CB2 receptor (Table 1) amounted to 5.4.
Take `CCCCCn1cc(C(=O)c2ccc(OCC)c3ccccc23)c2ccccc21` [JWH-258, 1-Pentyl-3-(4-ethoxy-1-naphthoyl)indole]: the Ki came out at 4.6 ± 0.6 nM at CB1 receptor (setting [2]) and 10.5 ± 1.3 nM on CB2 receptor (setting [3]).
As to `CCCCCn1c(C)c(C(=O)c2ccc(CCCC)c3ccccc23)c2ccccc21` [JWH-242, 2-Methyl-1-pentyl-3-(4-butyl-1-naphthoyl)indole], the Ki at CB1 receptor (setting [2]) turned out to be 42 ± 9 nM; on CB2 receptor (setting [3]), 6.5 ± 0.3 nM. Moreover, at CB2 receptor (Table 2), the “Ratio CB17CB2” value worked out at 6.5.
As to `CCC(C)(C)c1ccc2c(c1)OC(C)(C)[C@@H]1CC=C(CO)C[C@@H]21` [Compound 9b, 1-Deoxy-3-(1′,1′-dimethylpropyl)-11-hydroxy-Δ^8-THC], the values for the Ki at CB1 receptor and on CB2 receptor (setting [1]) were 187 ± 23 nM and 5.6 ± 1.7 nM, respectively. Further, the “selectivity for the CB2 receptor” value on CB2 receptor (CB2 over CB1 affinity) is 25 fold. Also, at CB2 receptor (Table 1), the “Ratio CB1/CB2” value was 33.
Turning to `CCCc1ccc(C(=O)c2c(C)n(CCC)c3ccccc23)c2ccccc12` [JWH-189, 2-Methyl-1-propyl-3-(4-propyl-1-naphthoyl)indole], the Ki at CB1 receptor (setting [6]) came to 52 ± 2 nM; on CB2 receptor (setting [9]), 12 ± 0.8 nM. Moreover, the “Ratio CB17CB2” value on CB2 receptor (Table 2) is 4.3.
In the case of `CCCCCn1cc(C(=O)c2cccc3ccccc23)c2ccccc21` [JWH-018], at CB2 receptor (Table 2), the “Ratio CB17CB2” value is reported as 3.3.
With `CCCCCn1c(C)c(C(=O)c2cccc3ccc(CC)cc23)c2ccccc21` [JWH-262, 2-Methyl-1-pentyl-3-(7-ethyl-1-naphthoyl)indole], the Ki at CB1 receptor (setting [6]) was 28 ± 3 nM; at CB2 receptor (setting [9]) it was 5.6 ± 0.7 nM. Moreover, the “Ratio CB17CB2” value at CB2 receptor (Table 2) worked out at 5.0.
In the case of `CCCCCn1c(C)c(C(=O)c2cccc3ccc(OC)cc23)c2ccccc21` [JWH-159, 2-Methyl-1-pentyl-3-(7-methoxy-1-naphthoyl)indole], the Ki was determined as 45 ± 1 nM at CB1 receptor (setting [2]) and 10.4 ± 1.4 nM at CB2 receptor (setting [3]).
The corresponding values for `CCCn1cc(C(=O)c2ccc(OCC)c3ccccc23)c2ccccc21` [JWH-259, 1-Propyl-3-(4-ethoxy-1-naphthoyl)indole] are 220 ± 29 nM and 74 ± 7 nM.
As to `CCCn1c(C)c(C(=O)c2ccc(C)c3ccccc23)c2ccccc21` [JWH-148, 2-Methyl-1-propyl-3-(4-methyl-1-naphthoyl)indole], the Ki at CB1 receptor (setting [2]) was 123 ± 8 nM; on CB2 receptor (setting [3]), 14 ± 1 nM. The “Ratio CB17CB2” value on CB2 receptor (Table 2) is on record as 8.8.
For the compound `CC(C)(C)c1ccc2c(c1)OC(C)(C)C1CC=C(CO)CC21` (stereo not shown) [Compound 9a, 1-Deoxy-3-(1′,1′-dimethylethyl)-11-hydroxy-Δ^8-THC], the results for the Ki at CB1 receptor (setting [2]) and at CB2 receptor (setting [3]) were 270 ± 58 nM and 18.1 ± 1.8 nM, respectively.
For `CCCC(C)(C)c1cc(OC)c2c(c1)OC(C)(C)[C@@H]1CC=C(CO)C[C@@H]21` [Compound 11c, 1-Methoxy-3-(1′,1′-dimethylbutyl)-11-hydroxy-Δ^8-THC], the Ki was 347 ± 34 nM on CB1 receptor and 28 ± 1 nM at CB2 receptor (setting [5]). The “Ratio CB1/CB2” value on CB2 receptor (Table 1) turned out to be 12.
The corresponding values for `CCCC(C)(C)c1ccc2c(c1)OC(C)(C)[C@@H]1CC=C(CO)C[C@@H]21` [Compound 9c, 1-Deoxy-3-(1′,1′-dimethylbutyl)-11-hydroxy-Δ^8-THC] are 84 ± 16 nM, 3.4 ± 0.5 nM and 25.
Turning to `CCCCCC(C)(C)c1ccc2c(c1)OC(C)(C)C1CC=C(CO)CC21` (stereo not shown) [Compound 9e, 1-Deoxy-3-(1′,1′-dimethylhexyl)-11-hydroxy-Δ^8-THC], the figures for the Ki on CB1 receptor (setting [2]) and at CB2 receptor (setting [3]) were 1.8 ± 0.3 nM and 0.52 nM, respectively. In addition, at CB2 receptor (Table 1), the “Ratio CB1/CB2” value turned out to be 3.5.
With `CCCn1cc(C(=O)c2cccc3cc(OC)ccc23)c2ccccc21` [JWH-163, 1-Propyl-3-(6-methoxy-1-naphthoyl)indole], the Ki was 2360 ± 215 nM on CB1 receptor (setting [4]) and 138 ± 12 nM at CB2 receptor (setting [3]).
For the compound `CCCCCn1c(C)c(C(=O)c2ccc(C)c3ccccc23)c2ccccc21` [JWH-149], the Ki at CB2 receptor (setting [9]) was 0.73 ± 0.03 nM. For the same compound, on CB2 receptor (Table 2), the “Ratio CB17CB2” value is 6.8.
The corresponding values for `CCCCCn1cc(C(=O)c2ccc(C)c3ccccc23)c2ccccc21` [JWH-122] are 1.2 ± 1.2 nM and 0.6.
Consider `CCCn1c(C)c(C(=O)c2cccc3ccc(C)cc23)c2ccccc21` [JWH-046, 2-methyl-1-propyl-3-(7-methyl-1-naphthoyl)indole], for which the “Ratio CB17CB2” value at CB2 receptor (Table 2) worked out at 21.
For `CCCC(C)(C)c1cc(OC)c2c(c1)OC(C)(C)[C@@H]1CC=C(C)C[C@@H]21` [Compound 6c, 3-(1′,1′-Dimethylbutyl)-1-methoxy-Δ^8-THC], the Ki is over 10000 nM on CB1 receptor, 325 ± 70 nM on CB2 receptor (setting [5]) and 1870 ± 867 nM on CB2 receptor (setting [1]). In addition, on CB2 receptor (Table 1), the “Ratio CB1/CB2” value is listed as 31.
Regarding `CCCn1cc(C(=O)c2cccc3ccc(CC)cc23)c2ccccc21` [JWH-235, 1-Propyl-3-(7-ethyl-1-naphthoyl)indole], the Ki was 338 ± 34 nM on CB1 receptor (setting [2]) and 123 ± 34 nM on CB2 receptor (setting [3]). The “Ratio CB17CB2” value at CB2 receptor (Table 2) turned out to be 2.7.
The matching figures for `CCCCCn1cc(C(=O)c2cccc3ccc(CC)cc23)c2ccccc21` [JWH-234, 1-Pentyl-3-(7-ethyl-1-naphthoyl)indole]: 8.4 ± 1.8 nM, 3.8 ± 0.6 nM and 2.2.
